Results: patent publication US20020151581A1, “Glucose and lipid lowering compounds” (priority 1998, published 2002)
Where two headings read alike, the source gives them in different places.

Legend:
[1] = target: T1, hepatic lipase (Homo sapiens, UniProt P11150); assay: Inhibition of hepatic lipase, glycerol stabilized triolein substrate; assay type: biochemical; parameters: Pur. Hepatic Lipase + test compound (enzyme activity): unit not given beside the values; settings: test compound 100 μM
T1 sequence (P11150 23-499): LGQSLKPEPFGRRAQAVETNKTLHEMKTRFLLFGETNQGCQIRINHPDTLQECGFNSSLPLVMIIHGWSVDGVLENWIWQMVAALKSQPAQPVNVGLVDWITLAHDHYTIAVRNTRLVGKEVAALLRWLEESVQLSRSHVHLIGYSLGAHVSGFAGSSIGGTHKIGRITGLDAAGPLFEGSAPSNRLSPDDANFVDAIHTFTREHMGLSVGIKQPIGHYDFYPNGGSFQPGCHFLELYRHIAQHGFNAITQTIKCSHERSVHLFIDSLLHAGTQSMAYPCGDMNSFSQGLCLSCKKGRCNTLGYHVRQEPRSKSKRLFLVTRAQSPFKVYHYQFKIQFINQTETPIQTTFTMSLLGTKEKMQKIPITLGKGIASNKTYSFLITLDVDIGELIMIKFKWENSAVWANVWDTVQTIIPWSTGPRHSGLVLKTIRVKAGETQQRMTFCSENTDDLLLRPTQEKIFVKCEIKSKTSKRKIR

[2] = target: T2, recombinant hormone-sensitive lipase (Homo sapiens, UniProt Q05469); assay: Inhibition of recombinant (purified) hormone-sensitive lipase on glycerol-stabilized triolein; assay type: biochemical; settings: test compound 100 μM, read-out: % inhibition Purified HSL
T2 construct: made in house
T2 sequence (Q05469 1-1076): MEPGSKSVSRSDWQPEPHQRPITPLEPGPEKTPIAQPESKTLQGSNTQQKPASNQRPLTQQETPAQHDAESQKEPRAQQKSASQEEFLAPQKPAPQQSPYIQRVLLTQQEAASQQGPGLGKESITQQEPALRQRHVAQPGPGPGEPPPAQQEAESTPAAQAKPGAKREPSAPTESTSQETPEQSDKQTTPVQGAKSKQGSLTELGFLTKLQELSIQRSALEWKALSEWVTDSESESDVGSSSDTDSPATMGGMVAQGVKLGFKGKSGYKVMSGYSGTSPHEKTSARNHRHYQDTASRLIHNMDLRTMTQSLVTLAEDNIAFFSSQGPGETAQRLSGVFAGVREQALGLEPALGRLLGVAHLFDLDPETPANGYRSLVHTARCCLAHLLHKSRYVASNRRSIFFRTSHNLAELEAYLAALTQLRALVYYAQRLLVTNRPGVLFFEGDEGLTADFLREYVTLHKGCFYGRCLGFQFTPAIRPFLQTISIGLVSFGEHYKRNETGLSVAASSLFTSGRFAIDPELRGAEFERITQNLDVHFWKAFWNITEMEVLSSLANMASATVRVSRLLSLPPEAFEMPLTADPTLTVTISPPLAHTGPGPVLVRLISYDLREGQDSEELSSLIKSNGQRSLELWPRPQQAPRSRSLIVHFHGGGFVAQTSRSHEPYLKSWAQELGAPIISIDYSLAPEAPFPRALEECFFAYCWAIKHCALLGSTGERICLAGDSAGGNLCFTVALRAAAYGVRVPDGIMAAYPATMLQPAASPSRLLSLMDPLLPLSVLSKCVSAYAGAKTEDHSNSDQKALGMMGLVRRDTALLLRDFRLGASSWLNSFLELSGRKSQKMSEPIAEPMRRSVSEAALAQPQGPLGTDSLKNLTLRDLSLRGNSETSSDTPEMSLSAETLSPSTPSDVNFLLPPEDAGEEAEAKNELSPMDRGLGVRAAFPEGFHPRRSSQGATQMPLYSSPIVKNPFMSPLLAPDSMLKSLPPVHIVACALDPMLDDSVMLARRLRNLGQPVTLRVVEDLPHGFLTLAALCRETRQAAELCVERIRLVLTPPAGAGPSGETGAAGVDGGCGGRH
Procedure: Recombinant hormone-sensitive lipase protein isolated from a bacterial expression vector was pre-incubated with a compound of the invention (e.g., 100 μM) prior to the addition of substrate, emulsified triolein phosphatidylcholine/phosphatidylinositol (PC/PI), to initiate the reaction. At various time points, aliquots of the reaction were taken, and the level of glycerol used as an index of enzyme activity. Pharmacological specificity is determined by incubating test compound with other mammalian and non-mammalian lipase enzyme systems to assess inhibition of activity. […]
In a similar manner to that described in Example 4 above, 2α-benzoyloxy-4,5,7,8,11αH-eudesman-8,12-olide at 100 μM was evaluated for ability to activity of recombinant hormone-sensitive lipase and hormone-sensitive lipase derived from a preparation of 3T3-cell lysate on glycerol-stabilized triolein.

CC1C[C@H](OC(=O)c2ccccc2)C[C@]2(C)C[C@H]3OC(=O)[C@@H](C)[C@H]3CC12 (stereo partly drawn) [2α-benzoyloxy-4,5,7,8,11αH-eudesman-8,12-olide]
melting point: 181 to 183 °C
inhibition of hepatic lipase (in words) [1]: failed to significantly inhibit
Pur. Hepatic Lipase + test compound (enzyme activity) ([1]; triolein substrate 30 μM): 0.08
Pur. Hepatic Lipase + test compound (enzyme activity) ([1]; triolein substrate 67 μM): 0.37
Pur. Hepatic Lipase + test compound (enzyme activity) ([1]; triolein substrate 100 μM): 0.69
Pur. Hepatic Lipase + test compound (enzyme activity) ([1]; triolein substrate 201 μM): 6.36
Pur. Hepatic Lipase + test compound (enzyme activity) ([1]; triolein substrate 400 μM): 30.80
Pur. Hepatic Lipase + test compound (enzyme activity) ([1]; triolein substrate 1000 μM): 151.60
inhibition at 100 µM ([2]; triolein 30 μM): 77%
inhibition at 100 µM ([2]; triolein 67 μM): 78%
inhibition at 100 µM ([2]; triolein 100 μM): 82%
inhibition at 100 µM ([2]; triolein 201 μM): 64%
inhibition at 100 µM ([2]; triolein 400 μM): 50%
inhibition at 100 µM ([2]; triolein 601 μM): 40%
inhibition at 100 µM ([2]; triolein 800 μM): 18%
inhibition at 100 µM ([2]; triolein 1000 μM): 27%
